# Assay results: patent US6709818B1, “Methods of diagnosing and treating hepatic cell proliferative disorders” (The Johns Hopkins University School of Medicine, priority 1999, dated 2004)
# “Also recorded” adds a separate entry of the source.
# Assays:
# GSTP1 promoter alleles = test: Southern blot analysis of GSTP1 "CpG island" DNA hypermethylation in Hep3B cells treated with 5-aza-dC; format: cell-based, human; details: Hep3B HCC cells treated in vitro, 72 hours
# Description: DNA isolated from Hep3B cells before and after exposure to 5-aza-dC in vitro was assessed for GSTP1 “CpG island” DNA hypermethylation using Southern blot analysis. Purified DNAs were digested first with HindIII and EcoRI and then extensively with the ^5-mC-sensitive restriction endonuclease BssHII. Digested DNAs were then electrophoresed on agarose gels, transferred to Zeta-Probe (DioRad) membranes, and then hybridized with ^32P-labeled GSTP1 cDNA DNA isolated from Hep3B HCC cells and from HCC and adjacent non-neoplastic tissues was also subjected to analysis for GSTP1 “CpG island” DNA hypermethylation using a ^5-mC-sensitive restriction endonuclease-polymerase chain reaction (PCR) strategy that permitted both detection of CpG dinucleotide methylation and simultaneous discrimination of maternal and paternal alleles in informative cases. […] To facilitate detection of the PCR amplification products, the downstream primer was end-labeled with [γ-^32P]ATP (Amersham) using T4 polynucleotide kinase (New England BioLabs). PCR was conducted by incubation at 95° C. for 1 min, 63° C. for 3 min, and 72° C. for 1.5 min, for 30 cycles followed by a final extension at 72° C. for 8 min. […]
# [1] = tested on: GSTP1 expression in Tsu-Prl PCA cells; test: GSTP1 expression in Tsu-Prl PCA cells treated with 5-aza-dC; format: cell-based, human; details: Tsu-Prl PCA cells (unmethylated GSTP1 promoter alleles), treated as for Hep3B
# Text: Assessment of GSTP1 expression.
# [2] = tested on: GSTP1 mRNA expression in Hep3B HCC cells; test: Northern blot analysis of GSTP1 mRNA expression by Hep3B cells treated with 5-aza-dC; details: for GSTP1 mRNA expression (Northern blot): Hep3B HCC cells treated in vitro, 72 hours
smiles,measurement,setting,value
"Nc1ncn([C@H]2C[C@H](O)[C@@H](CO)O2)c(=O)n1 [5-aza-dC, 5-aza-deoxycytidine]","GSTP1 ""CpG island"" / promoter allele methylation (Southern blot, BssHII digestion)",GSTP1 promoter alleles,appearance of unmethylated GSTP1 promoter alleles
same,"GSTP1 ""CpG island"" / promoter allele methylation (Southern blot, BssHII digestion)",GSTP1 promoter alleles; listed as 5-aza-deoxycytidine,reversed GSTP1 “CpG island” hypermethylation
same,modulation of GSTP1 expression,[1],no modulation of GSTP1 expression was evident
same,time at which GSTP1 mRNA expression began to appear,[2]; Hep3B HCC cells exposed for as long as 72 hours,≤ 24 h
same,GSTP1 mRNA expression (Northern blot),[2],reactivation of GSTP1 mRNA expression; also recorded: appearance of detectable GSTP1 mRNA
same,GSTP1 mRNA expression (Northern blot),[2]; listed as 5-aza-deoxycytidine,restored GSTP1 expression
